According to the supplement of paper PMC10307832:

Experiments:
Assay in all cases: relative viability (nuclei count vs DMSO), 5 days (fraction); higher = more cells survive
[1] = compound: C1=CC2=C(C=C(C(=C2N=C1)O)N=NC3=CC4=C(C=C3)C=C(C=C4)S(=O)(=O)O)S(=O)(=O)O + COc1cccc2cc(-c3nc([C@H]4CC[C@H](C(=O)O)CC4)n4ncnc(N)c34)[nH]c12 [OSI-027] (partner 0.5 µM)
Summary of the method: (§1)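 Values are medians from duplicate plates. Each reflects relative viability, defined as the nuclei count of treated wells over that of vehicle wells. Lung cancer cell lines in 1536-well plates were pin-tool dosed one day after seeding with one drug alone or with a fixed anchor-drug dose plus five library-drug doses (not always all listed) in √10 steps, then fixed, stained and imaged at 4× after 5 days.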

[2] = compound: C1=CC2=C(C=C(C(=C2N=C1)O)N=NC3=CC4=C(C=C3)C=C(C=C4)S(=O)(=O)O)S(=O)(=O)O + C[C@]1(O)C[C@@H](c2nc(-c3ccc4ccc(-c5ccccc5)nc4c3)c3c(N)nccn32)C1 [Linsitinib] (partner 1 µM)
Summary of the method: as §1

[3] = compound: C1=CC2=C(C=C(C(=C2N=C1)O)N=NC3=CC4=C(C=C3)C=C(C=C4)S(=O)(=O)O)S(=O)(=O)O + N=C(N)NC(=N)NCCc1ccccc1 [Phenformin] (partner 250 µM)
Summary of the method: as §1

AT-7519 + Luminespib = compound: O=C(NC1CCNCC1)c1n[nH]cc1NC(=O)c1c(Cl)cccc1Cl [AT-7519] + CCNC(=O)c1noc(-c2cc(C(C)C)c(O)cc2O)c1-c1ccc(CN2CCOCC2)cc1 [Luminespib] (partner 0.01 µM)
Summary of the method: as §1

Cell Line | relative viability ([1]; first compound 0.08 µM) | relative viability ([1]; first compound 0.253 µM) | relative viability ([1]; first compound 0.8 µM) | relative viability ([1]; first compound 2.53 µM) | relative viability ([1]; first compound 8 µM) | relative viability ([2]; first compound 0.08 µM) | relative viability ([2]; first compound 0.253 µM) | relative viability ([2]; first compound 0.8 µM) | relative viability ([2]; first compound 2.53 µM) | relative viability ([2]; first compound 8 µM) | relative viability ([3]; first compound 0.08 µM) | relative viability ([3]; first compound 0.253 µM) | relative viability ([3]; first compound 0.8 µM) | relative viability ([3]; first compound 2.53 µM) | relative viability ([3]; first compound 8 µM) | relative viability (AT-7519 + Luminespib; first compound 0.01 µM) | relative viability (AT-7519 + Luminespib; first compound 0.03162 µM) | relative viability (AT-7519 + Luminespib; first compound 0.3162 µM) | relative viability (AT-7519 + Luminespib; first compound 1 µM)
LC-2-ad | 0.936 | 0.855 | 0.626 | 0.906 | 0.723 | 0.623 | 0.839 | 0.861 | 0.805 | 0.918 | 0.575 | 0.553 | 0.548 | 0.588 | 0.651 | 1.03 | 0.892 | 1.17 | 0.501
SK-LU-1 | 0.424 | 0.366 | 0.38 | 0.338 | 0.354 | 1.38 | 1.13 | 1.14 | 1.14 | 1.03 | 0.597 | 0.493 | 0.558 | 0.572 | 0.624 | 0.221 | 0.195 | 0.202 | 0.2
COR-L 105 | 0.657 | 0.576 | 0.788 | 0.635 | 0.722 | 0.931 | 0.939 | 1.04 | 0.985 | 1.01 | 0.459 | 0.464 | 0.421 | 0.441 | 0.463 | 0.776 | 0.942 | 0.68 | 0.521
NCI-H1975 | 0.784 | 0.721 | 0.767 | 0.68 | 0.784 | 1.02 | 0.913 | 0.92 | 0.918 | 0.908 | 0.424 | 0.434 | 0.413 | 0.386 | 0.39 | 0.21 | 0.176 | 0.317 | 0.126
NCI-H1993 | 0.553 | 0.547 | 0.556 | 0.601 | 0.584 | 0.757 | 0.694 | 0.653 | 0.702 | 0.717 | 0.492 | 0.488 | 0.537 | 0.528 | 0.527 | 0.788 | 0.823 | 0.844 | 0.388
RERF-LC-KJ | 0.664 | 0.624 | 0.593 | 0.608 | 0.588 | 0.945 | 0.954 | 0.888 | 0.979 | 0.87 | 0.439 | 0.39 | 0.435 | 0.439 | 0.43 | 1.18 | 1.21 | 0.856 | 0.311
NCI-H23 | 0.619 | 0.585 | 0.637 | 0.654 | 0.603 | 0.625 | 0.446 | 0.63 | 0.722 | 0.578 | 0.869 | 0.805 | 0.694 | 0.786 | 0.83 | 0.224 | 0.236 | 0.183 | 0.146
EMC-BAC-2 | 0.408 | 0.397 | 0.386 | 0.363 | 0.343 | 0.912 | 0.821 | 0.825 | 0.823 | 0.8 | 0.587 | 0.561 | 0.514 | 0.526 | 0.427 | 1.21 | 1.17 | 1.19 | 1.14
NCI-H2405 | 0.649 | 0.599 | 0.602 | 0.644 | 0.6 | 0.909 | 0.873 | 0.943 | 1.04 | 0.948 | 0.382 | 0.384 | 0.371 | 0.342 | 0.362 | 0.713 | 0.718 | 0.592 | 0.281
NCI-H358 | 0.94 | 0.738 | 0.746 | 0.772 | 0.847 | 0.796 | 0.682 | 0.724 | 0.74 | 0.336 | 0.35 | 0.35 | 0.339 | 0.345 | 0.327 | 0.326 | 0.267 | 0.24 | 0.224
NCI-H1944 | 0.411 | 0.423 | 0.414 | 0.415 | 0.425 | 1.21 | 1.15 | 1.24 | 1.17 | 1.25 | 0.237 | 0.199 | 0.19 | 0.199 | 0.193 | 0.846 | 0.775 | 0.677 | 0.554
EPLC-272H | 0.298 | 0.258 | 0.258 | 0.283 | 0.294 | 1.29 | 1.07 | 1.13 | 1.31 | 1.37 | 0.284 | 0.319 | 0.292 | 0.28 | 0.323 | 0.226 | 0.216 | 0.37 | 0.0726
NCI-H1915 | 0.59 | 0.667 | 0.649 | 0.634 | 0.628 | 1.06 | 1.14 | 1.13 | 1.08 | 1.14 | 0.368 | 0.381 | 0.352 | 0.357 | 0.37 | 0.687 | 0.798 | 0.729 | 0.62
NCI-H596 | 0.812 | 0.653 | 0.613 | 0.695 | 0.663 | 1.02 | 1.07 | 1.1 | 1.14 | 1.15 | 0.749 | 0.735 | 0.697 | 0.841 | 0.759 | 0.988 | 1 | 0.846 | 0.827
NCI-H322M | 0.651 | 0.501 | 0.513 | 0.586 | 0.509 | 0.905 | 0.925 | 0.845 | 0.916 | 0.99 | 0.877 | 0.744 | 0.727 | 0.705 | 0.809 | 0.893 | 0.824 | 0.462 | 0.305
NCI-H2228 | 0.765 | 0.688 | 0.653 | 0.57 | 0.592 | 0.653 | 0.611 | 0.598 | 0.634 | 0.777 | 0.441 | 0.341 | 0.296 | 0.303 | 0.423 | 0.152 | 0.174 | 0.156 | 0.165
